# According to patent US6440903B1, “Substituted 2,4-diamino-1,3,5-triazines as herbicides” (Bayer Aktiengesellschaft, priority 1996, dated 2002):
# Columns and labels:
# Setaria [1] = experiment: Post-emergence test; format: in vivo; details: Setaria, 504 h, greenhouse, 500 g of ai./ha, scored after three weeks, read-out: % damage, Setaria
# Method: (§1) Post-emergence Test Solvent: 5 parts by weight of acetone Emulsifier: 1 part by weight of alkylaryl polyglycol ether To produce a suitable preparation of active compound, 1 part by weight of active compound is mixed with the stated amount of solvent, the stated amount of emulsifier is added and the concentrate is diluted with water to the desired concentration. Test plants which have a height of 5-15 cm are sprayed with the preparation of active compound such that the particular amounts of active compounds desired are applied per unit area. The concentration of the spray liquor is chosen so that the particular amounts of active compound desired are applied in 1000 l of water/ha. After three weeks, the degree of damage to the plants is scored visually in % damage in comparison to the untreated control. The Figures Denote: 0%=no effect (like untreated control) 100%=total destruction
# Galium = experiment: Post-emergence test; format: in vivo; details: greenhouse, 500 g of ai./ha, scored after three weeks
# Method: as §1
# Amaranthus [2] = experiment: Post-emergence test; format: in vivo; details: Amaranthus, 504 h, greenhouse, 500 g of ai./ha, scored after three weeks, read-out: % damage, Amaranthus
# Method: as §1
# weeds = experiment: Pre-emergence test (summary in text); format: in vivo; details: result in words
# Method: Solvent: 5 parts by weight of acetone
# Emulsifier: 1 part by weight of alkylaryl polyglycol ether
# To produce a suitable preparation of active compound, 1 part by weight of active compound is mixed with the stated amount of solvent, the stated amount of emulsifier is added and the concentrate is diluted with water to the desired concentration.
# Seeds of the test plants are sown in normal soil. After about 24 hours, the soil is watered with the preparation of active compound. The amount of water per unit area is advantageously kept constant. The concentration of active compound in the preparation is immaterial, only the application rate of active compound per unit area matters.
# After three weeks, the degree of damage to the plants is scored visually in % damage in comparison to the development of the untreated control.
# 0%=no effect (like untreated control)
# Maize = experiment: Pre-emergence test; format: in vivo; details: greenhouse, 1000 g of ai./ha, scored after three weeks
# Method: (§2) Pre-emergence Test Solvent: 5 parts by weight of acetone Emulsifier: 1 part by weight of alkylaryl polyglycol ether To produce a suitable preparation of active compound, 1 part by weight of active compound is mixed with the stated amount of solvent, the stated amount of emulsifier is added and the concentrate is diluted with water to the desired concentration. Seeds of the test plants are sown in normal soil. After about 24 hours, the soil is watered with the preparation of active compound. The amount of water per unit area is advantageously kept constant. The concentration of active compound in the preparation is immaterial, only the application rate of active compound per unit area matters. After three weeks, the degree of damage to the plants is scored visually in % damage in comparison to the development of the untreated control. The figures denote: 0%=no effect (like untreated control) 100%=total destruction
# Sinapis = experiment: Pre-emergence test; format: in vivo; details: greenhouse, 1000 g of ai./ha, scored after three weeks
# Method: as §2
# Amaranthus [3] = experiment: Pre-emergence test; format: in vivo; details: greenhouse, scored after three weeks
# Method: as §2
# Abutilon = experiment: Pre-emergence test; format: in vivo; details: greenhouse, 1000 g of ai./ha, scored after three weeks
# Method: as §2
# Wheat = experiment: Pre-emergence test; format: in vivo; details: greenhouse, scored after three weeks
# Method: as §2
# Cotton = experiment: Pre-emergence test; format: in vivo; details: greenhouse, scored after three weeks
# Method: as §2
# Digitaria = experiment: Pre-emergence test; format: in vivo; details: greenhouse, scored after three weeks
# Method: as §2
# Veronica = experiment: Pre-emergence test; format: in vivo; details: greenhouse, scored after three weeks
# Method: as §2
# Polygonum = experiment: Pre-emergence test; format: in vivo; details: greenhouse, scored after three weeks
# Method: as §2
# Echinochloa = experiment: Pre-emergence test; format: in vivo; details: greenhouse, scored after three weeks
# Method: as §2
# Solanum = experiment: Pre-emergence test; format: in vivo; details: greenhouse, scored after three weeks
# Method: as §2
# Setaria [4] = experiment: Pre-emergence test; format: in vivo; details: greenhouse, scored after three weeks
# Method: as §2
smiles,measurement,setting,value
COSc1ccc(C(C)Nc2nc(NC(C)=O)nc(C(Cl)Cl)n2)cc1 (centres unmarked),pest or weed control at 500 g/ha,Setaria [1],90%
same,"% damage, Galium",Galium,100%
same,pest or weed control at 500 g/ha,Amaranthus [2],100%
CC(=O)Nc1nc(NC(C)c2ccc(Cl)cc2)nc(C(C)(Cl)Cl)n1 (centres unmarked) [Example 160],melting point,,118 °C
same,activity against weeds,weeds,strong activity
CC(F)c1nc(N)nc(NC(C)c2ccc(Cl)cc2)n1 (centres unmarked) [drawing 94],"% damage, Maize",Maize,0%
same,"% damage, Sinapis",Sinapis,100%
same,"% damage, Amaranthus",Amaranthus [3]; 1000 g of ai./ha,100%
same,"% damage, Abutilon",Abutilon,100%
CC(Nc1nc(N)nc(C(C)(C)F)n1)c1ccc(Cl)cc1 (centres unmarked) [drawing 95],"% damage, Maize",Maize,0%
same,"% damage, Sinapis",Sinapis,100%
same,"% damage, Amaranthus",Amaranthus [3]; 1000 g of ai./ha,90%
same,"% damage, Abutilon",Abutilon,80%
CC(=O)Nc1nc(NC(C)c2ccc(Cl)cc2)nc(C(F)C(F)(F)F)n1 (centres unmarked) [drawing 97],"% damage, Wheat",Wheat; 500 g of ai./ha,0%
same,"% damage, Cotton",Cotton; 500 g of ai./ha,0%
same,"% damage, Digitaria",Digitaria; 500 g of ai./ha,80%
same,"% damage, Veronica",Veronica; 500 g of ai./ha,100%
same,"% damage, Polygonum",Polygonum; 500 g of ai./ha,100%
same,"% damage, Echinochloa",Echinochloa; 500 g of ai./ha,95%
same,"% damage, Amaranthus",Amaranthus [3]; 500 g of ai./ha,100%
CC(Nc1nc(N)nc(C(Cl)Cl)n1)c1ccc(Cl)cc1 (centres unmarked) [drawing 98],"% damage, Wheat",Wheat; 500 g of ai./ha,0%
same,"% damage, Cotton",Cotton; 500 g of ai./ha,0%
same,"% damage, Digitaria",Digitaria; 500 g of ai./ha,95%
same,"% damage, Veronica",Veronica; 500 g of ai./ha,100%
same,"% damage, Polygonum",Polygonum; 500 g of ai./ha,100%
same,"% damage, Echinochloa",Echinochloa; 500 g of ai./ha,100%
same,"% damage, Solanum",Solanum; 500 g of ai./ha,100%
CC(Nc1nc(N)nc(C(C)(Cl)Cl)n1)c1ccc(Cl)cc1 (centres unmarked) [drawing 99],"% damage, Wheat",Wheat; 1000 g of ai./ha,0%
same,"% damage, Cotton",Cotton; 1000 g of ai./ha,0%
same,"% damage, Digitaria",Digitaria; 1000 g of ai./ha,100%
same,"% damage, Veronica",Veronica; 1000 g of ai./ha,100%
same,"% damage, Echinochloa",Echinochloa; 1000 g of ai./ha,95%
same,"% damage, Amaranthus",Amaranthus [3]; 1000 g of ai./ha,100%
same,"% damage, Solanum",Solanum; 1000 g of ai./ha,100%
CC(Cl)c1nc(N)nc(NC(C)c2ccc(Cl)cc2)n1 (centres unmarked) [drawing 100],"% damage, Wheat",Wheat; 500 g of ai./ha,0%
same,"% damage, Cotton",Cotton; 500 g of ai./ha,0%
same,"% damage, Setaria",Setaria [4]; 500 g of ai./ha,95%
same,"% damage, Veronica",Veronica; 500 g of ai./ha,100%
same,"% damage, Polygonum",Polygonum; 500 g of ai./ha,100%
same,"% damage, Echinochloa",Echinochloa; 500 g of ai./ha,100%
same,"% damage, Solanum",Solanum; 500 g of ai./ha,100%
CC(Nc1nc(N)nc(C(F)C(F)(F)F)n1)c1ccc(Cl)cc1 (centres unmarked) [drawing 101],"% damage, Wheat",Wheat; 1000 g of ai./ha,0%
same,"% damage, Digitaria",Digitaria; 1000 g of ai./ha,100%
same,"% damage, Setaria",Setaria [4]; 1000 g of ai./ha,100%
same,"% damage, Veronica",Veronica; 1000 g of ai./ha,100%
same,"% damage, Polygonum",Polygonum; 1000 g of ai./ha,100%
same,"% damage, Echinochloa",Echinochloa; 1000 g of ai./ha,100%
same,"% damage, Amaranthus",Amaranthus [3]; 1000 g of ai./ha,100%
same,"% damage, Solanum",Solanum; 1000 g of ai./ha,100%
CC(=O)Nc1nc(NC(C)c2ccc(Cl)cc2)nc(C(F)C(F)(F)F)n1 (centres unmarked) [drawing 102],"% damage, Wheat",Wheat; 1000 g of ai./ha,0%
same,"% damage, Digitaria",Digitaria; 1000 g of ai./ha,100%
same,"% damage, Setaria",Setaria [4]; 1000 g of ai./ha,100%
same,"% damage, Veronica",Veronica; 1000 g of ai./ha,100%
same,"% damage, Polygonum",Polygonum; 1000 g of ai./ha,100%
same,"% damage, Echinochloa",Echinochloa; 1000 g of ai./ha,100%
same,"% damage, Amaranthus",Amaranthus [3]; 1000 g of ai./ha,100%
same,"% damage, Solanum",Solanum; 1000 g of ai./ha,100%
CC(=O)Nc1nc(NC(C)c2ccc(Cl)cc2)nc(C(C)(Cl)Cl)n1 (centres unmarked) [drawing 103],"% damage, Wheat",Wheat; 1000 g of ai./ha,0%
same,"% damage, Digitaria",Digitaria; 1000 g of ai./ha,100%
same,"% damage, Setaria",Setaria [4]; 1000 g of ai./ha,95%
same,"% damage, Veronica",Veronica; 1000 g of ai./ha,100%
same,"% damage, Polygonum",Polygonum; 1000 g of ai./ha,100%
same,"% damage, Echinochloa",Echinochloa; 1000 g of ai./ha,100%
same,"% damage, Amaranthus",Amaranthus [3]; 1000 g of ai./ha,100%
same,"% damage, Solanum",Solanum; 1000 g of ai./ha,100%
